Converted amounts (≈) assume the structure as drawn. “Also recorded” adds a separate entry of the source. Read-outs that look alike come from different tables or passages of the source.
Key:
[1] = system: Stat3, Stat1α, Stat5a and Stat5b; assay: Stat selectivity: immunoblotting and TransAM STAT Family ELISA; format: cell-based; details: DU145 cells, 18 h
Experimental: The Active Motif TransAMX Stat Family ELISA kit was utilized to study the specificity of IE-8 for Stat3, 20 μg of whole cell extract was used and Stat activity was assessed according to the manufacturer's protocol. Briefly, 30 μl of Complete Binding Buffer (provided and supplemented with 2 μl of 1M DTT and 10 μl of Herring sperm DNA per ml of Binding Buffer AM6) was added to each well used. 20 μl of sample (nuclear extract diluted in Complete Lysis Buffer) per well, were used, while Complete Lysis Buffer (provided and supplemented with 1 μl of 1 M DTT and 10 μl of Protease Inhibitor Cocktail per ml of Lysis Buffer AM1) only, was used for blanks. The plate was sealed with the provided adhesive cover and incubated for 1 hour at room temperature, with mild agitation, on a rocking platform. At the end of incubation, the wells were washed 3 times with 200 μl 1× Wash Buffer (provided). 100 μl of one of the diluted Stat antibodies (1:1000 dilution in 1× Antibody binding buffer for the Stat3, Stat1, Stat5A and Stat5B antibodies) were added to all the used wells. […] Absorbance was read on a spectrophotometer immediately thereafter, at 450 nm, with a reference wavelength of 655 nm.
TransAM® STAT Family ELIS Assay. […] 20 μg of whole cell extract was used and STAT activity was assessed according to the manufacturers protocol.

DU145 cells [2] = assay: SRB growth inhibition and combination index with cisplatin, DU145; format: cell-based
Experimental: (§1) The affected fractions were calculated from the SRB or MTT assay absorbance values and were registered to derive the respective CI values and isobolograms. A CI value of less than 1 (one) indicates synergy.
(§2) The SRB assay was used to assess cell growth inhibition by IE-8 alone and in combination with cisplatin. […] For combination studies drug treatments were sequential with IE-8 applied first followed by cisplatin for 1 h. […] Absorbance was read at 540 nm and results were normalized to untreated controls. For analysis of GC50 values and statistical significance, non-linear regression analysis with a comparison of fits was performed with the GraphPad Prism 6.0 software.
as §2, with “Drug Combination studies. Sulforhodamine B (SRB) Cell Growth Inhibition Assay. The” for “The”, “8 h” for “IE-8”

[3] = system: HCT116-oxaliplatin resistant cells; assay: MTT growth inhibition and Chou-Talalay combination index with oxaliplatin; format: cell-based; design: key to Effect: affected fraction (Fa) from MTT absorbance, 0-1; details: for CI values in combination with oxaliplatin: fixed and non-fixed ratio combination treatments, in many instances
Experimental: The software Calcusyn was utilized for analysis of drug interactions using the Chou-Talalay combination index method (Chou, T.-C. Drug Combination Studies and Their Synergy Quantification Using the Chou-Talalay Method. [Cancer Res. 70, 440-446 (2010)]
as §1
MIT assay. Individual drug treatments and combinations were carried out as with the SRB assay. The MTT assay was carried out as previously (see Cytotoxicity studies sections) with the difference that it was completed in 96 h.

DU145 cells [4] = assay: Wound healing (scratch) assay; format: cell-based; details: 1 μM for 18 h prior to wounding; untreated control closed by 36 h
Experimental: DU145 cells were seeded in 6-well cell culture plates with Dulbecco's modified Eagle's medium/high glucose containing 10% FBS. After the cells reached 100% confluence, the monolayer was scratched using a […] pipette tip and washed once with PBS, to remove non-adherent cells. […] After drug incubation and wound induction, the medium was replaced with fresh drug-free medium and cells were observed under the microscope at the denoted time points.

L1210 (lymphoma) cells = assay: MTT cytotoxicity assay, L1210 cells
[5] = target: Stat3 binding to hSIE DNA probe (Homo sapiens, UniProt P40763); assay: Electrophoretic mobility shift assay (EMSA); details: DU145 nuclear extracts
Sequence of Stat3 binding to hSIE DNA probe (P40763 whole entry): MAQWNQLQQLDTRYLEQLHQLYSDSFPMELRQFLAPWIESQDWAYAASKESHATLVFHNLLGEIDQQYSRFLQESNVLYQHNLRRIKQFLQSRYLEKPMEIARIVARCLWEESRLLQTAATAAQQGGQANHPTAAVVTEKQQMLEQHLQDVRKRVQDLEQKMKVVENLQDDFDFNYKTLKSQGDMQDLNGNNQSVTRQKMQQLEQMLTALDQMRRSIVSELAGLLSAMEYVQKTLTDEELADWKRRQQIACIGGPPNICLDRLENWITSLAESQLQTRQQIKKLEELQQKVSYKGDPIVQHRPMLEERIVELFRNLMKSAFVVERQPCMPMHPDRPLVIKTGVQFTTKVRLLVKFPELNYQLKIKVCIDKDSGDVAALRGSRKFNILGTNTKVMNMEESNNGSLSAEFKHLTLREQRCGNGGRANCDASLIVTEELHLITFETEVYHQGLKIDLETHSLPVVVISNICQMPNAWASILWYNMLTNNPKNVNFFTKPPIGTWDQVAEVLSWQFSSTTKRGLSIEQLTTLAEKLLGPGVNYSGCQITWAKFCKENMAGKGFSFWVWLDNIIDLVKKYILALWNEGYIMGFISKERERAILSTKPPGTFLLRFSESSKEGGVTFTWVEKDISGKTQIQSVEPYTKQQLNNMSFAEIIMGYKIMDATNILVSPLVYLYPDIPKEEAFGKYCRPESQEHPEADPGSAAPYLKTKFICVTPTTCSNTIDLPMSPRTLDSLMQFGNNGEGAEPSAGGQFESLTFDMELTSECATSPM
Experimental: Binding reactions contained 0.9 μg poly(dI-dC). Competition assays were performed by adding 100× excess cold SIE oligonucleotide (lane C) and non-specific competitor (lane M: FIRE; 5′-[sequence]-3′). The DNA-protein complexes were subjected to electrophoresis and resolved on a 5% non-denaturing polyacrylamide gel (30% acrylamide/Bis solution, Bio-Rad) in 0.5% TBE buffer containing 2.5% glycerol (pH 7.8) at 4° C. for 2 h. Once dried, the radioactive signal of the gel was visualized by exposure to Fuji medical X-ray film.
Binding reactions contained 0.9 μg poly(dI-dC). Competition assays were performed by adding 100× excess cold SIE oligonucleotide (lane C) and non-specific competitor (lane M; FIRE; 5′-[sequence]-3′). The DNA-protein complexes were subjected to electrophoresis and resolved on a 5% non-denaturing polyacrylamide gel (30% acrylamide/Bis solution, Bio-Rad) in 0.5% TBE buffer containing 2.5% glycerol (pH 7.8) at 4° C. for 2 h. Once dried, the radioactive signal of the gel was visualized by exposure to Fuji medical X-ray film.

[6] = Aqueous solubility (MultiScreen Solubility Filter Plate, shake-flask based)
Experimental: Aqueous solubility of Compounds of the Invention was measured with a modified version of the MultiScreen Solubility Filter Plate protocol (Millipore). This assay was based on the shake-flask equilibrium method and utilizes UV-Vis spectroscopy to quantify the unknown samples. The assay was conducted at room temperature at pH 7.4. […] Compound of the Invention was dissolved in DMSO, and the final DMSO concentration was 5% (v/v). Each sample was analyzed by UV-Vis spectroscopy at 10 nm increments from 260-600 nm to determine the optimal wavelength for detection and construct standard curves. […] A 4:1 mixture of supernatant to acetonitrile was added to a 96-well acrylic plate and analyzed by UV-Vis spectroscopy.
Aqueous solubility was measured with a modified version of the MultiScreen Solubility Filter Plate protocol (Millipore). This assay is based on the shake-flask equilibrium method and utilizes UV-Vis spectroscopy to quantify the unknown samples. The assay is conducted at room temperature at pH 7.4. […] Each compound was dissolved in DMSO, and the final DMSO concentration was 5% (v/v). Each sample was analyzed by UV-Vis spectroscopy at 10 nm increments from 260-600 nm to determine the optimal wavelength for detection and construct standard curves. […] A 4:1 mixture of supernatant to acetonitrile was added to a 96-well acrylic plate and analyzed by UV-Vis spectroscopy.

[7] = IE-8 2.0 μM 1 h, then oxaliplatin 0.1 μM 96 h
[8] = IE-8 2.0 μM 1 h, then oxaliplatin 1.0 μM 96 h
[9] = IE-8 2.0 μM 1 h, then oxaliplatin 10.0 μM 96 h
[10] = IE-8 2.0 μM 1 h, then oxaliplatin 20.0 μM 96 h
[11] = IE-8 2.0 μM 1 h, then oxaliplatin 40.0 μM 96 h
[12] = IE-8 2.0 μM 1 h, then oxaliplatin 60.0 μM 96 h
[13] = IE-8 2.0 μM 1 h, then oxaliplatin 80.0 μM 96 h
[14] = IE-8 2.0 μM 1 h, then oxaliplatin 100.0 μM 96 h
[15] = IE-8 2.0 μM 1 h, then oxaliplatin 200.0 μM 96 h
[16] = IE-8 2.5 μM 1 h, then oxaliplatin 0.1 μM 96 h
[17] = IE-8 2.5 μM 1 h, then oxaliplatin 1.0 μM 96 h
[18] = IE-8 2.5 μM 1 h, then oxaliplatin 10.0 μM 96 h
[19] = IE-8 2.5 μM 1 h, then oxaliplatin 20.0 μM 96 h
[20] = IE-8 2.5 μM 1 h, then oxaliplatin 40.0 μM 96 h
[21] = IE-8 2.5 μM 1 h, then oxaliplatin 60.0 μM 96 h
[22] = IE-8 2.5 μM 1 h, then oxaliplatin 80.0 μM 96 h
[23] = IE-8 2.5 μM 1 h, then oxaliplatin 100.0 μM 96 h
[24] = IE-8 2.5 μM 1 h, then oxaliplatin 200.0 μM 96 h
[25] = IE-8 3.0 μM 1 h, then oxaliplatin 0.1 μM 96 h
[26] = IE-8 3.0 μM 1 h, then oxaliplatin 1.0 μM 96 h
[27] = IE-8 3.0 μM 1 h, then oxaliplatin 10.0 μM 96 h
[28] = IE-8 3.0 μM 1 h, then oxaliplatin 20.0 μM 96 h
[29] = IE-8 3.0 μM 1 h, then oxaliplatin 40.0 μM 96 h
[30] = IE-8 3.0 μM 1 h, then oxaliplatin 60.0 μM 96 h
[31] = IE-8 3.0 μM 1 h, then oxaliplatin 80.0 μM 96 h
[32] = IE-8 3.0 μM 1 h, then oxaliplatin 100.0 μM 96 h
[33] = IE-8 3.0 μM 1 h, then oxaliplatin 200.0 μM 96 h
[34] = oxaliplatin 1.0 μM 1 h, 3 h later IE-8 1.0 μM until 96 h
[35] = oxaliplatin 10.0 μM 1 h, 3 h later IE-8 1.0 μM until 96 h
[36] = oxaliplatin 20.0 μM 1 h, 3 h later IE-8 1.0 μM until 96 h
[37] = oxaliplatin 40.0 μM 1 h, 3 h later IE-8 1.0 μM until 96 h
[38] = oxaliplatin 60.0 μM 1 h, 3 h later IE-8 1.0 μM until 96 h
[39] = oxaliplatin 80.0 μM 1 h, 3 h later IE-8 1.0 μM until 96 h
[40] = oxaliplatin 200.0 μM 1 h, 3 h later IE-8 1.0 μM until 96 h
[41] = oxaliplatin 400.0 μM 1 h, 3 h later IE-8 1.0 μM until 96 h

3,5-Di(3,4,5-trimethoxybenzylidene)-1-phenylpiperidin-4-one [IE-8]
selectivity for Stat3 over Stat1, Stat5a and Stat5b [1]: selective for STAT3 over STAT1
combination index (CI) with cisplatin (DU145 cells [2]; IE-8 18 h then cisplatin 1 h, fixed ratio 1:50): > 1
CI values in combination with oxaliplatin [3]: < 1
time for which full wound closure was prevented (DU145 cells [4]): up to 60 h
IC50 (L1210 (lymphoma) cells; read-out: IC50 (μM) L1210, 72 h exposure, MTT, mean of three independent experiments): ~0.3 µM
concentration blocking Stat3-DNA binding activity [5]: ≥ 0.8 µM
Solubility in aqueous buffer ([6]; pH 7.4, room temperature, 5% DMSO, free base): 200 ± 30 µM

COc1cc(/C=C2\CN(c3ccccc3)C/C(=C\c3cc(OC)c(OC)c(OC)c3)C2=O)cc(OC)c1OC [IE-8, 3,5-Di(3,4,5-trimethoxybenzylidene)-1-phenylpiperidin-4-one]
selectivity for Stat3 over Stat1, Stat5a and Stat5b [1]: selectively inhibits pStat3^Tyr705 without inhibiting pStat1^Tyr701 or pStat5^Tyr694; also recorded: selectively inhibit the Stat3-DNA binding activity over that of Stat1α, Stat5a and Stat5b; also recorded: selective for Stat3 over Stat1, Stat5a, and Stat5b
combination index (CI) with cisplatin (DU145 cells [2]; 5 μM IE-8 1 h then cisplatin 1 h, non-fixed ratio): below 1
CI-value [3, 7]: 1.558
Effect [3, 7]: 0.1065
CI-value [3, 8]: 1.979
Effect [3, 8]: 0.0954
CI-value [3, 9]: 2.754
Effect [3, 9]: 0.1575
CI-value [3, 10]: 1.58
Effect [3, 10]: 0.315
CI-value [3, 11]: 1.172
Effect [3, 11]: 0.4676
CI-value [3, 12]: 1.135
Effect [3, 12]: 0.5256
CI-value [3, 13]: 0.827
Effect [3, 13]: 0.6386
CI-value [3, 14]: 0.7749
Effect [3, 14]: 0.678
CI-value [3, 15]: 0.4016
Effect [3, 15]: 0.8582
CI-value [3, 16]: 0.721
Effect [3, 16]: 0.5165
CI-value [3, 17]: 1.405
Effect [3, 17]: 0.2143
CI-value [3, 18]: 1.985
Effect [3, 18]: 0.231
CI-value [3, 19]: 1.805
Effect [3, 19]: 0.313
CI-value [3, 20]: 0.8326
Effect [3, 20]: 0.6087
CI-value [3, 21]: 0.8009
Effect [3, 21]: 0.6559
CI-value [3, 22]: 0.5921
Effect [3, 22]: 0.76
CI-value [3, 23]: 0.7993
Effect [3, 23]: 0.7021
CI-value [3, 24]: 0.4777
Effect [3, 24]: 0.855
CI-value [3, 25]: 0.8489
Effect [3, 25]: 0.527
CI-value [3, 26]: 1.924
Effect [3, 26]: 0.171
CI-value [3, 27]: 1.573
Effect [3, 27]: 0.3259
CI-value [3, 28]: 1.453
Effect [3, 28]: 0.4064
CI-value [3, 29]: 0.7871
Effect [3, 29]: 0.6743
CI-value [3, 30]: 0.8214
Effect [3, 30]: 0.6878
CI-value [3, 31]: 0.5584
Effect [3, 31]: 0.8108
CI-value [3, 32]: 0.48
Effect [3, 32]: 0.8527
CI-value [3, 33]: 0.4763
Effect [3, 33]: 0.877
CI values in combination with oxaliplatin [3]: < 1
CI-value [3, 34]: 5.476
Effect [3, 34]: 0.2692
CI-value [3, 35]: 1.482
Effect [3, 35]: 0.6799
CI-value [3, 36]: 0.9954
Effect [3, 36]: 0.7838
CI-value [3, 37]: 0.5439
Effect [3, 37]: 0.8908
CI-value [3, 38]: 0.5183
Effect [3, 38]: 0.897
CI-value [3, 39]: 0.4279
Effect [3, 39]: 0.9184
CI-value [3, 40]: 0.3786
Effect [3, 40]: 0.93
CI-value [3, 41]: 0.488
Effect [3, 41]: 0.9045
time for which full wound closure was prevented (DU145 cells [4]): up to 60 h
IC50 (L1210 (lymphoma) cells; Mus musculus, L1210, 72 h, read-out: IC50 (μM) L1210, 72 h exposure, MTT, mean of three independent experiments): 0.36 µM
concentration blocking Stat3-DNA binding activity [5]: ≥ 0.8 µM
solubility at 6 h ([6]; aqueous buffer with 5% DMSO, pH 7.4, aqueous with cosolvent or surfactant or cyclodextrin, kinetic from dmso stock): 200 ± 30 µM (≈ 106 µg/mL)

From patent US11964943B2, “3,5-diarylidenyl-n-substituted-piperid-4-one-derived inhibitors of Stat3 pathway activity and uses thereof” (priority 2017, dated 2024)
